Targets include Carbonic anhydrase 3 (Homo sapiens, UniProt P07451); Carbonic anhydrase 2 (Homo sapiens, UniProt P00918); Carbonic anhydrase 7 (Homo sapiens, UniProt P43166); Carbonic anhydrase 9 (Homo sapiens, UniProt Q16790); Carbonic anhydrase 14 (Homo sapiens, UniProt Q9ULX7); Carbonic anhydrase 6 (Homo sapiens, UniProt P23280); Carbonic anhydrase 13 (Mus musculus, UniProt Q9D6N1); Carbonic anhydrase 4 (Homo sapiens, UniProt P22748).

Experiment [1] concerns the target Carbonic anhydrase 5B, mitochondrial (Homo sapiens, UniProt Q9Y2D0).
The target in experiment [2] is Carbonic anhydrase 5A, mitochondrial (Homo sapiens, UniProt P35218).
Carbonic anhydrase 5A, mitochondrial, sequence (P35218 whole entry): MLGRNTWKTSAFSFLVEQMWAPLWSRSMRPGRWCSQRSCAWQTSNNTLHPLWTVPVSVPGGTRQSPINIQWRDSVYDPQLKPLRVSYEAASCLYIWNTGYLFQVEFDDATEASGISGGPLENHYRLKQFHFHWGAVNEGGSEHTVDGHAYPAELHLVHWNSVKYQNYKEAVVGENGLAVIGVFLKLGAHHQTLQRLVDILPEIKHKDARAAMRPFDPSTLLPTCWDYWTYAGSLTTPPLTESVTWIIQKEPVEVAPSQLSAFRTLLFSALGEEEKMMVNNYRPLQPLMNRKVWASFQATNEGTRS

Structures are written as SMILES.

What is called Ki is the dissociation constant of the complex between target and ligand, obtained from inhibition or displacement.

Carbonic anhydrase 3, sequence (P07451 whole entry): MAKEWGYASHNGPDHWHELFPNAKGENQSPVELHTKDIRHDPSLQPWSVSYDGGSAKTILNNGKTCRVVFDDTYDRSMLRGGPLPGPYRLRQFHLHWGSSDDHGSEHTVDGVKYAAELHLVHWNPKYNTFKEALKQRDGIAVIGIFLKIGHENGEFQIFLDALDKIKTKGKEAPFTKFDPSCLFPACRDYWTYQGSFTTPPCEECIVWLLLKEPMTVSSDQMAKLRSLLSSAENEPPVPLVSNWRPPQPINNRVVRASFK
Carbonic anhydrase 6, sequence (P23280 whole entry): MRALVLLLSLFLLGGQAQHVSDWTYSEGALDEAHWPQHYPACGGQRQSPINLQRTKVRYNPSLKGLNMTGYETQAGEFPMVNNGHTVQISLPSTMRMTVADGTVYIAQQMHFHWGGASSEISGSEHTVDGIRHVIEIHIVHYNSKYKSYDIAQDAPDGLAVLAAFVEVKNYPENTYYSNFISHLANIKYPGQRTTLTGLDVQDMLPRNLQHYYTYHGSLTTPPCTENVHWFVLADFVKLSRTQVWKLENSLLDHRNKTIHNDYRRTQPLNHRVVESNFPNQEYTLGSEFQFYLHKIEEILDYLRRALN
Carbonic anhydrase 4, sequence (P22748 whole entry): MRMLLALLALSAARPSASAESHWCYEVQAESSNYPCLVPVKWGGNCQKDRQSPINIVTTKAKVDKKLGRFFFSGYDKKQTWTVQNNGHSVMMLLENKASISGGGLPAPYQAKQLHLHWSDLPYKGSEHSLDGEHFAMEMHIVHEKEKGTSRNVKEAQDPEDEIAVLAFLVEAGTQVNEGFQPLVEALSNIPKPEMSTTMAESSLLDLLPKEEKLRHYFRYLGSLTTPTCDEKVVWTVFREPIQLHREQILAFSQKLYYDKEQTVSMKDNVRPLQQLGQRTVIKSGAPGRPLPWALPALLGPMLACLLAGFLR
Carbonic anhydrase 7, sequence (P43166 whole entry): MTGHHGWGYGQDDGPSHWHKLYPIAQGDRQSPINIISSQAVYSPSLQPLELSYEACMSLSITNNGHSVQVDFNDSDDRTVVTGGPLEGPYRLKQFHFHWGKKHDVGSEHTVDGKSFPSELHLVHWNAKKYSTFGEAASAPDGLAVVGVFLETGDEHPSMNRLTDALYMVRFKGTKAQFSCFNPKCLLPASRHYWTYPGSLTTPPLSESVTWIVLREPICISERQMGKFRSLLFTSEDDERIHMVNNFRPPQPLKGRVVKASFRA
Carbonic anhydrase 13, sequence (Q9D6N1 whole entry): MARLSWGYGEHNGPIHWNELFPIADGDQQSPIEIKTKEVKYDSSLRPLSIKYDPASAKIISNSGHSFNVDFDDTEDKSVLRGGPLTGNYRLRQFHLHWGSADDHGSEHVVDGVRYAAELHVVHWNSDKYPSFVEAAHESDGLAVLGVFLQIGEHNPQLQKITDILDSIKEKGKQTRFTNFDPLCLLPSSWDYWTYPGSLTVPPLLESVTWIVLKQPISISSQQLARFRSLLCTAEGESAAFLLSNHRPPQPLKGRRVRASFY
Carbonic anhydrase 5B, mitochondrial, sequence (Q9Y2D0 whole entry): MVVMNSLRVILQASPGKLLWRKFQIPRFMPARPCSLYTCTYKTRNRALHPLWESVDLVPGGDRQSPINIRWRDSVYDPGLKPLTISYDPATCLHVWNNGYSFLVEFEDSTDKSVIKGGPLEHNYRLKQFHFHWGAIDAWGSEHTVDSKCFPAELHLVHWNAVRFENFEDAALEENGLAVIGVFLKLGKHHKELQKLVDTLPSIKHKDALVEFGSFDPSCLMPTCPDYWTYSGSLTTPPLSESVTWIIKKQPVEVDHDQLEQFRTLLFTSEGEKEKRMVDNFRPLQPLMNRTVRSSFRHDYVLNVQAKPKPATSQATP
Carbonic anhydrase 14, sequence (Q9ULX7 whole entry): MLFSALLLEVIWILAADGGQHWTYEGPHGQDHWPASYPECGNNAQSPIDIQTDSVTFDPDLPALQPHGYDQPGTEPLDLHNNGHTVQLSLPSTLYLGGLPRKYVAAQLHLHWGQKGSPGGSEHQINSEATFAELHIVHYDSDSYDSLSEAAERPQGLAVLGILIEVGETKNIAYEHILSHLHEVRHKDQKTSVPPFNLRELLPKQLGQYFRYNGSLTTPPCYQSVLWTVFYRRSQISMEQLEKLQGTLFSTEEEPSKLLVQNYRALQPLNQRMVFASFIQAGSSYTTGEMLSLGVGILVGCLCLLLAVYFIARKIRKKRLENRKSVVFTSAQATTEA

Regarding `NS(=O)(=O)c1cc(C2(O)NC(=O)c3ccccc32)ccc1Cl` (configuration not stated) [CHLORTHALIDONE], the Ki is 11 µM at Carbonic anhydrase 3; 0.138 µM at Carbonic anhydrase 2; 0.0028 µM on Carbonic anhydrase 7; 0.009 µM in experiment [1]; 0.023 µM at Carbonic anhydrase 9; 4.13 µM on Carbonic anhydrase 14. Also, the Ki in [2] is 0.917 µM; on Carbonic anhydrase 6, 1.35 µM; on Carbonic anhydrase 13, 0.015 µM; at Carbonic anhydrase 4, 0.196 µM.
As for `NS(=O)(=O)c1cc(C(=O)O)c(NCc2ccco2)cc1Cl` [FUROSEMIDE], the Ki on Carbonic anhydrase 3 worked out at 3200 µM.
On the same count and under the same terms, the result for `CC1Cc2ccccc2N1NC(=O)c1ccc(Cl)c(S(N)(=O)=O)c1` (configuration not stated) [INDAPAMIDE] reads 230 µM.

The record behind these values is ChEMBL document CHEMBL1143325 (Bioorg Med Chem, 2009).
